Assay results taken from patent publication US6833372B2, “Non-peptide GnRH agents, Pharmaceutical compositions, and methods for their use” (Pfizer, Inc., priority 2002, dated 2004).
In brackets after ≈: the same amount, converted by molar mass. Like-named read-outs stand apart in the source and are kept apart here.

How the values were obtained:
human GnRH receptors = molecular target: T1, human GnRH receptors (Homo sapiens, UniProt P30968); assay: Radioligand binding: inhibition of 125I-GnRH-A binding to human GnRH receptor membranes; details: HEK 293 cell membranes
T1 construct: expressed in transfected cells; host or cells: HEK 293 cells, stably transfected; membranes
T1 sequence (P30968 1-328): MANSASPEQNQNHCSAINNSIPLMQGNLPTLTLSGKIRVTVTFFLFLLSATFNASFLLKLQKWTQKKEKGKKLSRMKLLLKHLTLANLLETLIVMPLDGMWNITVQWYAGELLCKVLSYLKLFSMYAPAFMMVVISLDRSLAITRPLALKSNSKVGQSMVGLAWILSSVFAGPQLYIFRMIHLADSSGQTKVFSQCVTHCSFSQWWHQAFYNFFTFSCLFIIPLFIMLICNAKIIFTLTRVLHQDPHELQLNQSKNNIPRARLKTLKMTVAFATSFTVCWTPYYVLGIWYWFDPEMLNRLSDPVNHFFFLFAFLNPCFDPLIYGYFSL
Procedure, shortened: (§1)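 Membranes from rat pituitaries, or HEK 293 cells stably expressing mouse or human receptor, incubated 1 hour at room temperature with ~0.04-0.06 nM radioligand (HEPES pH 7.4, EDTA, MgCl2, BSA) and competitor at 0.1-10,000 nM. Bound ligand collected by GF/C filtration and counted; Ki derived from IC50 by Cheng-Prusoff.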

[1] = In vitro metabolism: disappearance of parent compound in human liver microsomes; type: in vitro ADME; details: 5 uM compound, 0.5 mg/ml protein, 2 mM NADPH, 30 minutes 37° C.
Procedure, shortened: (§2)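 Microsomes from human, rat (male, female), dog and monkey liver incubated with 5 uM compound, 0.5 mg/ml protein and 2 mM NADPH in 50 mM K phosphate, pH 7.4, for 30 min at 37° C. Reaction stopped with acetonitrile; parent compound remaining measured by LC-MS.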

[2] = In vitro metabolism: disappearance of parent compound in dog liver microsomes; type: in vitro ADME; details: 5 uM compound, 30 minutes 37° C.
Procedure, shortened: as §2

[3] = In vitro metabolism: disappearance of parent compound in monkey liver microsomes; type: in vitro ADME; details: 5 uM compound, 30 minutes 37° C.
Procedure, shortened: as §2

[4] = In vitro metabolism: disappearance of parent compound in rat liver microsomes (male, female); type: in vitro ADME; details: 5 uM compound, 30 minutes 37° C.; for Fem. Rat (FR) % rem. 30′: female rat liver microsomes; for Male Rat (MR) % rem. 30′: male rat liver microsomes
Procedure, shortened: as §2

rat GnRH receptor = molecular target: T2, rat GnRH receptor (Rattus norvegicus, UniProt P30969); assay: Radioligand binding: inhibition of 125I-GnRH-A binding to rat GnRH receptor (rat pituitary membranes); details: read-out: Ki (nM), Inhibition Binding of 125I-GnRH-A to GnRH Receptors
T2 construct: or rat pituitaries (Pel Freez Biologicals, Rogers, Ark.) were homogenized; tissue Pel Freez Biologicals; host or cells: rat pituitaries (membrane preparation)
T2 sequence (P30969 1-327): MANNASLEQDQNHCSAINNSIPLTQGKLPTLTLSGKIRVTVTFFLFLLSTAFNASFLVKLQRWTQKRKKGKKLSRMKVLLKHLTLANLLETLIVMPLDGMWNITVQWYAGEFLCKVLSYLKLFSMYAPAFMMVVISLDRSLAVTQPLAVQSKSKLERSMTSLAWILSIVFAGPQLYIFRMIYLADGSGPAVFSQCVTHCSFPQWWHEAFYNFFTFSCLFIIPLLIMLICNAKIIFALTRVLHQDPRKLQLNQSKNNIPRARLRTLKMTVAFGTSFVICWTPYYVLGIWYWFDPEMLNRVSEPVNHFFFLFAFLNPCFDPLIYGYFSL
Procedure, shortened: as §1

Rat plasma % remain = type: in vitro ADME
[5] = Solubility at pH2 and pH6; type: physicochemical
[6] = pH 6, aqueous buffer, pH6, read-out: Solubility μg/ml pH6

Row | Ki (human GnRH receptors) [nM] | Human % rem. 30′ [1] [%] | Dog % rem. 30′ [2] [%] | Monkey % rem. [3] [%] | Fem. Rat (FR) % rem. 30′ [4] [%] | Male Rat (MR) % rem. 30′ [4] [%] | Ki (rat GnRH receptor) [nM] | Rat plasma % remain (Rat plasma % remain) [%] | solubility [5, 6] [µg/mL] | solubility ([5]; pH 2, simulated gastric fluid, pH2, read-out: Solubility μg/ml pH2) [µg/mL] | SMILES
1 | 7.7 | 83 | 49 | 7 | 75 | 44 | 5.4 | 100 | > 15 | – | COc1nc(OCCO)nc(OC)c1NC(=O)c1ccc(Cc2cc3c(cc2C)C(C)(C)OC3(C)C)o1 [Example A3, 5-(1,1,3,3,6-Pentamethyl-1,3-dihydro-isobenzofuran-5-ylmethyl)-furan-2-carboxylic acid [2-(2-hydroxy-ethoxy)-4,6-dimethoxy-pyrimidin-5-yl]-amide]
2 | 4.6 | 60 | 22 | 0 | 74 | 11 | 3.8 | 100 | > 12 | > 12 | COc1nc(OC)c(NC(=O)c2ccc(Cc3cc4c(cc3C)C(C)(C)OC4(C)C)o2)c(OC)n1 [Example A1, 5-(1,1,3,3,6-Pentamethyl-1,3-dihydro-isobenzofuran-5-ylmethyl)-furan-2-carboxylic Acid (2,4,6-trimethoxy-pyrimidin-5-yl)-amide]
3 | 0.55 | 35 | 0 | 0 | 72 | 1 | 0.7 | 100 | 1 (≈ 2.03 µM) | – | COc1nc(OC)c(NC(=O)c2ccc(Cc3cc4c(cc3C)C(C)(C)CCC4(C)C)o2)c(OC)n1 [Example C1, 5-(3,5,5,8,8-Pentamethyl-5,6,7,8-tetrahydro-naphthalen-2-ylmethyl)-furan-2-carboxylic Acid (2,4,6-trimethoxy-pyrimidin-5-yl)-amide]
4 | 1.8 | 40 | 4 | 12 | 35 | 11 | 11 | 83 | 0.4 (≈ 0.79 µM) | – | COc1nc(N(C)C)nc(OC)c1NC(=O)c1ccc(Cc2cc3c(cc2C)C(C)(C)CCC3(C)C)o1 [Example B2, 5-(3,5,5,8,8-Pentamethyl-5,6,7,8-tetrahydro-naphthalen-2-ylmethyl)-furan-2-carboxylic Acid (dimethylamino-dimethoxy-pyrimidin-5-yl)-amide]
